{"source": "patent US20100003217A1", "about": "“Compounds and Pharmaceutical Compositions for the Treatment of Viral Infections” (priority 2008, published 2010)", "key": {"[1]": {"system": "wild-type HCV replicon (GS4.1 cells)", "test": "microbe, parasite or virus in culture", "procedure": "(§1) 1. […] Huh-7 cells were seeded into column 1 of each plate at a similar density.\n(§2) 2. […] Eight additional 3-fold serial dilutions of each compound were prepared from the 2× stock in assay medium. Final drug concentrations ranged from 100 to 0.015 μM.\n(§3) 3. […] This setup was run in duplicate in each 96-well plate.\n(§4) 4. Cells were incubated with inhibitors for three days at 37° C./5% CO2.\n(§5) 1. After three days of drug treatment, media was removed from the plates via gentle tapping and the cells were fixed to the plates with 100 μL/well of 1:1 acetone:methanol.\n(§6) 2. After one minute of incubation at room temperature, plates were washed three times with 100 μL/well of ELISA wash solution and then blocked with 150 μL/well of 10% FBS-TNE.\n(§7) 3. After a one hour incubation at room temperature, plates were washed three times with 100 μL/well of ELISA wash solution, and then 100 μL/well of mouse anti-hepatitis C […] mAb (1 mg/mL stock diluted 1:1,500 in 10% FBS-TNE) was added.\n(§8) 4. Following 2 hours of incubation at 37° C., plates were washed three times with 100 μL/well of ELISA wash solution, and then 100 μL/well of HRP-goat anti-mouse antibody (diluted 1:4,000 in 10% FBS-TNE) was added.\n(§9) 4. After a one hour incubation period at 37° C., each plate was washed three times with 100 μL/well of ELISA wash solution. Color development was then initiated with 100 μL/well of OPD solution.\n(§10) 5. After a 30 minute incubation period in the dark at room temperature, reactions were stopped by adding 100 μL of 2NH2SO4 to each well.\n(§11) 6. The absorbance was measured at 490 nm on a Victor^3 V 1420 multilabel counter (Perkin Elmer). The percent inhibition of HCV replicon replication was calculated for each drug using an average of the duplicate wells."}, "[2]": {"system": "S282T HCV replicon (184R-D2 cells)", "test": "microbe, parasite or virus in culture", "procedure": "as §1, §2, §3, §4, §5, §6, §7, §8, §9, §10, §11"}, "[3]": {"test": "Cytotoxicity (MTS assay), GS4.1 cells, Example 18", "format": "cell-based, human", "conditions": "human, GS4.1 cells (wild-type); GS4.1 (wild-type), MTS assay, N = 3", "procedure": "(§12) Cells were plated and treated with inhibitors as described above."}, "GS4.1 cells": {"system": "GS4.1 cells", "test": "Cytotoxicity (MTS assay), GS4.1 cells, Example 18", "format": "cell-based, human", "conditions": "wild-type or S282T replicon cells treated with up to 100 μM", "procedure": "as §12"}, "[4]": {"system": "HCV genotype 1b replicon (GS4.1 cells)", "test": "In vitro combination of Compound 1 and ribavirin on HCV replicon (NS4A ELISA; MacSynergy II, CombiTool, CalcuSyn)", "format": "cell-based", "conditions": "Hepatitis C virus, 72 h, single-drug titration experiments, three days", "procedure": "This setup was run in duplicate in each 96-well plate.\nCells were incubated with inhibitors for three days at 37° C./5% CO2.\nAfter three days of drug treatment, media was removed from the plates via gentle tapping and the cells were fixed to the plates with 100 μL/well of 1:1 acetone:methanol.\nAfter one minute of incubation at room temperature, plates were washed three times with 100 μL/well of ELISA wash solution and then blocked with 150 μL/well of 10% FBS-TNE.\nAfter a one hour incubation period at 37° C., each plate was washed three times with 100 μL/well of ELISA wash solution. Color development was then initiated with 100 μL/well of OPD solution.\nAfter a 30 minute incubation period in the dark at room temperature, reactions were stopped by adding 100 μL of 2NH2SO4 to each well.\nThe absorbance was measured at 490 nm on a Victor^3 V 1420 multilabel counter (Perkin Elmer)."}, "[5]": {"test": "Total radioactivity in rat liver after [^14C]-Compound 1", "format": "in vivo, male Sprague-Dawley rats", "procedure": "Isotopically diluted [^14C]-Compound 1 was administered intravenously to male Sprague-Dawley rats at 50 mg/kg or by oral gavage at 100 mg/kg.\nLiver samples were collected at 2, 6 and 24 h postdose from the animals of both the IV and the PO dose groups. The samples were flash frozen after excision and kept on dry ice during homogenization. The homogenization was conducted on dry ice in 70% methanol-30% water containing 20 mM EDTA and 20 mM EGTA (about 1× (w/v) weight of the liver). Triplicate weighed aliquots (about 500 mg) were combusted in the Packard Sample Oxidizer and followed by LSC analysis to determine radioactivity […]). The average data for levels of total radioactivity in liver are summarized below."}, "[6]": {"test": "Cytotoxicity (MTS assay), 184R-A cells", "format": "cell-based", "conditions": "human, 184R-A cells (S282T), 184R-A (S282T), N = 3", "procedure": "as §12"}, "CYP2D6": {"biological_target": "CYP2D6 (Homo sapiens, UniProt P10635)", "sequence (P10635 whole entry)": "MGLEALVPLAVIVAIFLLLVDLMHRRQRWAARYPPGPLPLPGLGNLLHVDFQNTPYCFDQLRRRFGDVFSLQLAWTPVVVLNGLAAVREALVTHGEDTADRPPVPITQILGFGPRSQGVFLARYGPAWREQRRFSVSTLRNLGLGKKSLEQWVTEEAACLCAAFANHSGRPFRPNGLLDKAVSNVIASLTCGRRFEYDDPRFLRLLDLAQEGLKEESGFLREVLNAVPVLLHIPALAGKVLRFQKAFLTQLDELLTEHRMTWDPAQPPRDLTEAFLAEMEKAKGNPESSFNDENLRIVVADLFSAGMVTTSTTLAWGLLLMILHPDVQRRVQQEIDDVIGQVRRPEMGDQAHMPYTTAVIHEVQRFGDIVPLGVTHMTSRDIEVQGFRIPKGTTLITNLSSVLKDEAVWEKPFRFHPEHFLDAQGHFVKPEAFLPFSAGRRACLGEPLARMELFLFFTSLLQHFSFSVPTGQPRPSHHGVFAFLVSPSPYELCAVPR", "test": "Incubation with human recombinant CYP450 supersomes, 2D6", "format": "in vitro ADME", "conditions": "CYP450 2D6 supersomes, 60 min, 10 μM, average of two experiments", "procedure": "Supersomes—Incubations were conducted in a final volume of 0.1 mL reaction buffer (50-100 mM potassium phosphate, pH 7.4 or 100 mM Tris-HCL, pH 7.4) according to protocol provided with each CYP450 supersome. Each reaction contained […] of CYP450 supersome, 1.3 mM NADP^+, 3.3 mM glucose-6-phosphate, 0.4 U/mL glucose-6-phosphate dehydrogenase, 3.3 mM MgCl2 and 10 μM Compound 1. Following incubation for 60 min at 37° C., 100 μL of stop solution (acetonitrile:methanol; 1:1) was added and samples centrifuged for 10 min at 10,000×g. The supernatant was then dried and reconstituted in 10 mM potassium phosphate, pH 5, further transferred to an HPLC glass vial and analyzed by HPLC-UV (described above)."}, "[7]": {"conditions": "Group 1A: IV 50 mg/kg, 2 h postdose"}, "[8]": {"conditions": "Group 1B: IV 50 mg/kg, 6 h postdose"}, "[9]": {"conditions": "Group 1C: IV 50 mg/kg, 24 h postdose"}, "[10]": {"conditions": "Group 2A: PO 100 mg/kg, 2 h postdose"}, "[11]": {"conditions": "Group 2B: PO 100 mg/kg, 6 h postdose"}, "[12]": {"conditions": "Group 2C: PO 100 mg/kg, 24 h postdose"}}, "data": [{"smiles": "CC(C)(CO)C(=O)SCCOP(=O)(NCc1ccccc1)OC[C@H]1O[C@@H](n2cnc3c(=O)[nH]c(N)nc32)[C@](C)(O)[C@@H]1O", "note": "(mixture of isomers) [Compound 1, 3-hydroxy-2,2-dimethyl-thiopropionic acid S-(2-{[(2R,3R,4R,5R)-5-(2-amino-6-oxo-1,6-dihydro-purin-9-yl)-3,4-dihydroxy-4-methyl-tetrahydro-furan-2-ylmethoxy]-benzylamino-phosphoryloxy}-ethyl) ester]", "values": [{"measurement": "Fold shift from wild-type", "setting": "[1]; GS4.1 (wild-type), EC50 reference", "result": 1, "unit": "fold"}, {"measurement": "EC50", "setting": "[1]; Hepatitis C virus", "result": 0.3, "unit": "µM"}, {"measurement": "Fold shift from wild-type", "setting": "[2]; 184R-D2 (S282T), EC50 in resistant line divided by EC50 in wild-type cells", "result": 130, "unit": "fold"}, {"measurement": "EC50", "setting": "[2]; Hepatitis C virus", "result": "39 ± 10", "unit": "µM"}, {"measurement": "CC50 at 3 days", "setting": "[3]", "result": "> 100", "unit": "µM"}, {"measurement": "in vitro cytotoxicity (MTS)", "setting": "GS4.1 cells", "result": "no evidence of in vitro cytotoxicity"}, {"measurement": "EC50", "setting": "[4]", "result": "0.4 ± 0.09", "unit": "µM"}, {"measurement": "Concentration of total radioactivity in liver as μg equivalents/gram", "setting": "[5]; [7]", "result": "206 ± 24", "unit": "μg equivalents/gram"}, {"measurement": "Total radioactivity in liver as % AD", "setting": "[5]; [7]", "result": "15.5 ± 0.7", "unit": "% AD"}, {"measurement": "Concentration of total radioactivity in liver as μg equivalents/gram", "setting": "[5]; [8]", "result": "137 ± 12", "unit": "μg equivalents/gram"}, {"measurement": "Total radioactivity in liver as % AD", "setting": "[5]; [8]", "result": "10.1 ± 1.0", "unit": "% AD"}, {"measurement": "Concentration of total radioactivity in liver as μg equivalents/gram", "setting": "[5]; [9]", "result": "23.2 ± 3.1", "unit": "μg equivalents/gram"}, {"measurement": "Total radioactivity in liver as % AD", "setting": "[5]; [9]", "result": "1.76 ± 0.11", "unit": "% AD"}, {"measurement": "Concentration of total radioactivity in liver as μg equivalents/gram", "setting": "[5]; [10]", "result": "5.09 ± 0.78", "unit": "μg equivalents/gram"}, {"measurement": "Total radioactivity in liver as % AD", "setting": "[5]; [10]", "result": "0.20 ± 0.04", "unit": "% AD"}, {"measurement": "Concentration of total radioactivity in liver as μg equivalents/gram", "setting": "[5]; [11]", "result": "10.3 ± 1.2", "unit": "μg equivalents/gram"}, {"measurement": "Total radioactivity in liver as % AD", "setting": "[5]; [11]", "result": "0.37 ± 0.05", "unit": "% AD"}, {"measurement": "Concentration of total radioactivity in liver as μg equivalents/gram", "setting": "[5]; [12]", "result": "4.08 ± 1.10", "unit": "μg equivalents/gram"}, {"measurement": "Total radioactivity in liver as % AD", "setting": "[5]; [12]", "result": "0.17 ± 0.03", "unit": "% AD"}, {"measurement": "total radioactivity in liver, % of the administered dose", "setting": "[5]; IV [^14C]Compound 1, 2 h", "result": 16, "unit": "%"}, {"measurement": "total radioactivity in liver, % of the administered dose", "setting": "[5]; IV [^14C]Compound 1, 6 h", "result": 10, "unit": "%"}, {"measurement": "total radioactivity in liver, % of the administered dose", "setting": "[5]; IV [^14C]Compound 1, 24 h", "result": 1.8, "unit": "%"}, {"measurement": "total radioactivity in liver", "setting": "[5]; IV, 2 h", "result": "206 μg equivalents of Compound 1/g of liver"}, {"measurement": "total radioactivity in liver", "setting": "[5]; IV, 6 h", "result": "137 μg equivalents of Compound 1/g of liver"}, {"measurement": "total radioactivity in liver", "setting": "[5]; IV, 24 h", "result": "23 μg equivalents of Compound 1/g of liver"}, {"measurement": "total radioactivity in liver", "setting": "[5]; oral administration, 2 h", "result": "5 μg equivalents of Compound 1/g of liver"}, {"measurement": "total radioactivity in liver, % of the dose", "setting": "[5]; oral administration, 2 h", "result": 0.2, "unit": "%"}, {"measurement": "total radioactivity in liver", "setting": "[5]; oral administration, 6 h", "result": "10 μg equivalents of Compound 1/g of liver"}, {"measurement": "total radioactivity in liver, % of the dose", "setting": "[5]; oral administration, 6 h", "result": 0.4, "unit": "%"}, {"measurement": "total radioactivity in liver", "setting": "[5]; oral administration, 24 h", "result": "4 μg equivalents of Compound 1/g of liver"}, {"measurement": "total radioactivity in liver, % of the dose", "setting": "[5]; oral administration, 24 h", "result": 0.2, "unit": "%"}, {"measurement": "CC50 at 3 days", "setting": "[6]", "result": "> 100", "unit": "µM"}, {"measurement": "% Residual Compound 1", "setting": "CYP2D6", "result": 102, "unit": "%"}]}]}
